# Several values for one entry are separate records, joined by “and”; a condition that tells them apart may be missing. Identical values can stand only once. Like-named read-outs stand apart in the source and are kept apart here.
# Tests used:
# human GPR61 N137A = molecular target: T1, human GPR61 N137A (Homo sapiens, UniProt Q9BZJ8, N137A); assay: Functional cAMP assay (HTRF), transiently transfected CHO-K1 cells, GPR61 N137A mutant; type: cell-based; design: key to cAMP response (Figure 3e source data): nM cAMP per well, from standard curve; conditions: for IC50: Fig. 3e table
# T1 construct: expressed in transfected cells; host or cells: CHO-K1, transient (Fugene6)
# Excerpt: The human GPR61 (reference sequence NM_031936.4) cDNA was synthesized and subcloned into pcDNA5/FRT/TO (Thermo Fisher, Pittsburgh, PA). The pcDNA5/FRT/TO/ human GPR61 plasmid was then transfected into the Flp-In™-CHO Cell Line (Thermo Fisher, Pittsburgh, PA) and a doxycycline-inducible clonal cell line was selected (CHO TREx hGPR61 WT). Sequences encoding untagged and HiBit/hemagglutinin (HA)-tagged versions of the wild-type human GPR61 were synthesized and cloned into pcDNA3.1. The HiBit ([…]) and HA ([…]) tags were sequentially included after the N-terminal initiator methionine. Four single amino acid substitutions (N137A, R140A, V288A, N345A) were then introduced in the untagged and tagged human GPR61 constructs using site-specific mutagenesis. The nucleotide sequences of all receptor constructs were confirmed by automated DNA sequencing.
# Parental CHO-K1 cells were maintained at 37 °C in a humidified environment (5% CO2) and grown in Dulbecco’s Modified Eagle Medium (DMEM) F-12 media (Gibco, 11320033) supplemented with 10% FBS, 1% Glutamax (Gibco, 35050061) and 100units/ml penicillin and streptomycin (Gibco, 15140122. Cells were dissociated using a cell dissociation solution (Gibco, 13151-014), counted, and resuspended in complete culture media without antibiotics. Cells were then transiently transfected using Fugene6 (Promega) in a 384-well plate format (Corning, 3570). For each well, 7500 cells were transfected with 5 ng of receptor plasmid, 20 ng of carrier DNA (Promega, PAE4881) and 0.075 μl Fugene6 in a final volume of 25 μl. Fugene6 and DNA were separately diluted in Optimem media (Gibco, 31985070) (1.25 μl final volume each). Fugene6 and DNA solutions were then combined and incubated for 15 min at room temperature. The cell containing solution (22.5 μl) was then added and transfection reactions were mixed and transferred to the assay plate. Following 24 h incubation at 37 °C, wells were rinsed once and 25 μl of HiBit assay buffer (Phenol-red free DMEM F-12 media containing 2% FBS) was added per well. Surface and total receptor expression was measured separately by adding 25 μl per well of the extracellular (Promega, PRN2421) and lytic (Promega, PRN3040) assay solutions, respectively. Plates were incubated for 10 min at room temperature on a shaker and luciferase activity was measured using an EnVision plate reader (Perkin Elmer, Chicago, IL). Expression was normalized as percent of the wild-type receptor signal. Statistical comparisons of expression levels observed with WT versus GPR61 mutants were made by one-way analysis of variance with Dunnett’s post hoc test.
# A homogeneous Time-Resolved Fluorescence (HTRF) assay (Perkin Elmer, Dynamic2 kit #) was used to assess receptor basal and inverse agonist activity at human GPR61, GPR62, and GPR101. For routine inverse agonist screening frozen CHO TREx human GPR61, GPR62 and GPR101 cells were used. Cells were thawed, resuspended in complete assay media (DMEM F-12, 10% HI FBS, 100 μg/mL Normocin, 700 μg/mL Hygromycin B and 15 μg/mL Blasticidin) containing 1ug/ml doxycycline, plated in white 384 well plates (Corning, 3570) at a density of 750 cells/well (25 μl/ well) and cultured at 37 °C in an incubator overnight. For studies assessing basal and inverse agonist activity at human GPR61 mutants, CHO-K1 cells were transiently transfected using Fugene6, plated in white 384 well plates (7500 cells/well) and grown overnight at 37 °C, as described for receptor expression studies. […]
# human GPR101 = molecular target: T2, human GPR101 (Homo sapiens, UniProt Q96P66); assay: Functional cAMP assay (HTRF), stable CHO TREx human GPR101 cells; type: cell-based; conditions: Supplementary Table 2
# T2 construct: expressed in transfected cells
# Description: A homogeneous Time-Resolved Fluorescence (HTRF) assay (Perkin Elmer, Dynamic2 kit #) was used to assess receptor basal and inverse agonist activity at human GPR61, GPR62, and GPR101. For routine inverse agonist screening frozen CHO TREx human GPR61, GPR62 and GPR101 cells were used. Cells were thawed, resuspended in complete assay media (DMEM F-12, 10% HI FBS, 100 μg/mL Normocin, 700 μg/mL Hygromycin B and 15 μg/mL Blasticidin) containing 1ug/ml doxycycline, plated in white 384 well plates (Corning, 3570) at a density of 750 cells/well (25 μl/ well) and cultured at 37 °C in an incubator overnight. For studies assessing basal and inverse agonist activity at human GPR61 mutants, CHO-K1 cells were transiently transfected using Fugene6, plated in white 384 well plates (7500 cells/well) and grown overnight at 37 °C, as described for receptor expression studies. […] Data were analyzed using the ratio of fluorescence intensity at 620 and 665 nm for each well, extrapolated from the cAMP standard curve to express data as nM cAMP for each well. […]
# Human PDE2A1 = Human PDE2A1 (Homo sapiens, UniProt O00408); assay: Phosphodiesterase Assay (SPA); type: biochemical
# Human PDE2A1, sequence (O00408 1-920 isoform O00408-2): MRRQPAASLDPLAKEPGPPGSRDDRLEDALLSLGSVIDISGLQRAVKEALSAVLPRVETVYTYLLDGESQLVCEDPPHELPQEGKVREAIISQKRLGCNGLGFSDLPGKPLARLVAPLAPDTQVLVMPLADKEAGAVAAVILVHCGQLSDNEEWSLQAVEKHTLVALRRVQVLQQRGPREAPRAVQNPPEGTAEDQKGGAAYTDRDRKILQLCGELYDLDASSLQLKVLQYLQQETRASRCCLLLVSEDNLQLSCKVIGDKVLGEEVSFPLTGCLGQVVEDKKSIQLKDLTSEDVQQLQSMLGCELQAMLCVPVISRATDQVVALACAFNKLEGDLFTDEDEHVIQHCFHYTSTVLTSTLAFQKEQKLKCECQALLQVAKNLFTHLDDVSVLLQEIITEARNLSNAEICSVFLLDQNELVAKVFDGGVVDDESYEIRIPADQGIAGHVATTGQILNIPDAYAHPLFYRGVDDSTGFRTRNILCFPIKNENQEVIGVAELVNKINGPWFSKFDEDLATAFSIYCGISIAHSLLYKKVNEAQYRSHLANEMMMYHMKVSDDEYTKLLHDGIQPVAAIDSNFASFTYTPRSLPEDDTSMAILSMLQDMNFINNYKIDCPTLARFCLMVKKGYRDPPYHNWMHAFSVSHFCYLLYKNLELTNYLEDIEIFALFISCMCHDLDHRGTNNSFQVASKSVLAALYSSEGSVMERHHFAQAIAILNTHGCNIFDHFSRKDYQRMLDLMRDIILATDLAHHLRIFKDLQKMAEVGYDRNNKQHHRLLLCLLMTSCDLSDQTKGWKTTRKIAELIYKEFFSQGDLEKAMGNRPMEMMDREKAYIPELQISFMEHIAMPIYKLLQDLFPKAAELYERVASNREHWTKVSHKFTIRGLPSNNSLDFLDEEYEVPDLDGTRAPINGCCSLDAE
# T1 sequence (Q9BZJ8 whole entry N137A): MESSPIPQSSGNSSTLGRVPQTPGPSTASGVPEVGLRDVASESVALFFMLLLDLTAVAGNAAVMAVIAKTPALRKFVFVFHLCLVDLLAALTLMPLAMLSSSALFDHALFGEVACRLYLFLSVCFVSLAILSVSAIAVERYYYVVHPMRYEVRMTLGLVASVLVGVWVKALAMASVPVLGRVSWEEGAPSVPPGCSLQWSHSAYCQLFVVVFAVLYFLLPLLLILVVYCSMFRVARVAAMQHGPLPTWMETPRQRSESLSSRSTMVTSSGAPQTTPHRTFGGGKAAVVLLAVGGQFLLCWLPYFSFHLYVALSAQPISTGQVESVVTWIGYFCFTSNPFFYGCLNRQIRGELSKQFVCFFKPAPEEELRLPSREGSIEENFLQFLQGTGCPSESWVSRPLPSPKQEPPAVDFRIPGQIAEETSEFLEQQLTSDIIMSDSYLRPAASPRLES
# T2 sequence (Q96P66 whole entry): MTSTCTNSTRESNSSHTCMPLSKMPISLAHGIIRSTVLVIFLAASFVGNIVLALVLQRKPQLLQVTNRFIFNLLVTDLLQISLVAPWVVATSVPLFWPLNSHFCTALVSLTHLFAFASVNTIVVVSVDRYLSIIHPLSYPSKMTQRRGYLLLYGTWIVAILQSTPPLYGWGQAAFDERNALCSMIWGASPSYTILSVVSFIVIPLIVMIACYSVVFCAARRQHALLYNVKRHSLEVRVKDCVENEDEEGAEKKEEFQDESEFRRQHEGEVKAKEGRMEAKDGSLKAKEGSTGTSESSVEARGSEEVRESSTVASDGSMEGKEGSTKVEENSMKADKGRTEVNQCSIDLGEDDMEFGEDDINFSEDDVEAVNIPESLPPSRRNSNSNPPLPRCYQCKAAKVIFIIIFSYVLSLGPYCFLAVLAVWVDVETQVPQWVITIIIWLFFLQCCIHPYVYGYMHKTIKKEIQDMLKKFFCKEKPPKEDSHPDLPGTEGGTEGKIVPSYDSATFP
compound,measurement,setting,value
CCOc1cc(C)nc(N(CCOC)S(=O)(=O)c2ccc(NCc3c(F)cncc3F)nc2OC)n1 [Compound 1],reduction of potency relative to wild-type in the cAMP assay,human GPR61 N137A; Asn137 to Ala mutation vs wild-type,about 100 fold
same,IC50,"human GPR61 N137A; HiBit-tagged, read-out: GPR61 cAMP IC50 (95% CI), N137A HiBit-tagged",3.34 µM
same,IC50,"human GPR61 N137A; untagged, read-out: GPR61 cAMP IC50 (95% CI), N137A Untagged",1.73 µM
same,cAMP response (Figure 3e source data),"human GPR61 N137A; HiBit N137A, concentration -6.5",4.93 and 5.62 and 3.82 and 3.87 and 6.18 and 6.86
same,cAMP response (Figure 3e source data),"human GPR61 N137A; HiBit N137A, concentration -7.5",4.76 and 5.49 and 3.72 and 4.04 and 6.75 and 6.55
same,cAMP response (Figure 3e source data),"human GPR61 N137A; HiBit N137A, concentration -8",6.63 and 6.17 and 3.76 and 4.15 and 6.97 and 7.08
same,cAMP response (Figure 3e source data),"human GPR61 N137A; HiBit N137A, concentration -9",2.87 and 4.76 and 3.00 and 3.25 and 3.54
same,cAMP response (Figure 3e source data),"human GPR61 N137A; Untagged N137A, concentration -6",4.52 and 4.56 and 3.59 and 3.47 and 5.45 and 5.98
same,IC50,human GPR101,> 29.7 µM
same,IC50,Human PDE2A1,> 200 µM

# Reference: paper PMC10517971, “An inverse agonist of orphan receptor GPR61 acts by a G protein-competitive allosteric mechanism” (Nature Communications, 2023)
